Measurements published in the Deep4Chem optical property database.
One block for each compound: values may come before it.

Test: solvent given as SMILES

Compound: COc1ccc(C2=CC(c3ccc4ccccc4c3)=[O+][B-](C(C)=O)(C(C)=O)O2)cc1
- fluorescence lifetime (in CC#N): 3 ns
- fluorescence lifetime (in ClC(Cl)(Cl)Cl): 1.2 ns

Compound: CC(C)(C)c1ccc2c(c1)B1c3cc(C(C)(C)C)ccc3Oc3cc(N4c5ccccc5C(C)(C)c5ccccc54)cc(c31)O2
- fluorescence lifetime (in Cc1ccccc1): 6.6 ns

Compound: Clc1ncc(-c2c3ccccc3c(-c3cnc(Cl)nc3)c3ccccc23)cn1
- fluorescence lifetime (in CCO): 2.1 ns
- fluorescence lifetime (in ClCCl): 6.2 ns

Compound: O=C(O)CCCCCn1c2ccccc2c(=O)c2ccccc21
- fluorescence lifetime (in O): 14.2 ns

Compound: CCOC(=O)c1ccc2c(c1)[nH]c1c3ccc(C(=O)OCC)cc3[nH]c21
- fluorescence lifetime (in CCCO): 4.75 ns

Compound: Oc1ccc2ccc(C3(O)C4CC5CC(C4)CC3C5)cc2c1 (stereo not drawn)
- fluorescence lifetime (in CC#N): 7.78 ns

Compound: COc1ccc(C2=Cc3c4ccccc4cc[n+]3[B-](F)(F)O2)cc1
- fluorescence lifetime (in ClC(Cl)Cl): 0.958 ns

Compound: CC1(C)C(/C=C/C2=C(c3ccc(C(=O)O)cc3)C(=C/C=C3/N(CCCCS(=O)(=O)[O-])c4ccc(S(=O)(=O)[O-])cc4C3(C)C)/CCC2)=[N+](CCCCS(=O)(=O)[O-])c2ccc(S(=O)(=O)[O-])cc21
- fluorescence lifetime (in CC(C)=O): 1.02 ns
- fluorescence lifetime (in CCO): 1 ns
- fluorescence lifetime (in CO): 0.81 ns
- fluorescence lifetime (in CS(C)=O): 1.33 ns
- fluorescence lifetime (in O): 0.44 ns

Compound: COc1ccc2cc(C#Cc3ccc([N+](=O)[O-])cc3)ccc2c1
- fluorescence lifetime (in C1CCOC1): 0.57 ns
- fluorescence lifetime (in ClC(Cl)Cl): 0.77 ns
- fluorescence lifetime (in ClCCl): 0.32 ns

Compound: O=C1c2ccccc2C(=O)c2cc(-c3ccc(N(c4ccccc4)c4ccccc4)cc3)ccc21
- fluorescence lifetime (in CCCCCC): 5.51 ns
- fluorescence lifetime (in CCOC(C)=O): 0.15 ns
- fluorescence lifetime (in CCOCC): 2.81 ns
- fluorescence lifetime (in Cc1ccccc1): 6.79 ns
- fluorescence lifetime (in ClC(Cl)(Cl)Cl): 8.82 ns

Compound: Cn1nc(-c2ccccc2)c2nc3cc(Cl)ccc3nc21
- fluorescence lifetime (in C1CCCCC1): 23.9 ns
- fluorescence lifetime (in C1CCOC1): 20.1 ns
- fluorescence lifetime (in CC#N): 7.74 ns

Compound: COc1cc2c(cc1/C=C/C(=C(C#N)C#N)c1ccccc1)c1ccccc1n2C
- fluorescence lifetime (in C1CCOC1): 7.35 ns
- fluorescence lifetime (in CC#N): 7.64 ns
- fluorescence lifetime (in CCO): 5.52 ns
- fluorescence lifetime (in CCOC(C)=O): 6.74 ns
- fluorescence lifetime (in CN(C)C=O): 7.2 ns
- fluorescence lifetime (in CS(C)=O): 9.07 ns
- fluorescence lifetime (in Cc1ccccc1): 7.98 ns
- fluorescence lifetime (in ClC(Cl)Cl): 8.11 ns
- fluorescence lifetime (in ClCCl): 6.44 ns

Compound: CCCCCCN(CCCCCC)c1ccc(C#Cc2ccc(C#Cc3ccc(-c4ccc(C#Cc5ccc(C#Cc6ccc(N(CCCCCC)CCCCCC)cc6)cc5)cc4)cc3)cc2)cc1
- fluorescence lifetime (in Cc1ccccc1): 0.8 ns

Compound: N#Cc1ccc(/C=C2\OC(=O)c3cc(N)ccc32)cc1
- fluorescence lifetime (in CC#N): 0.51 ns
- fluorescence lifetime (in CC(C)=O): 0.54 ns
- fluorescence lifetime (in CC(C)CO): 2.4 ns
- fluorescence lifetime (in CCO): 2.2 ns
- fluorescence lifetime (in CCOC(C)=O): 0.75 ns
- fluorescence lifetime (in CO): 2.67 ns

Compound: CN(C)c1ccc2nc(/C=C/c3cc4c5c(c3)CCCN5CCC4)c(=O)oc2c1
- fluorescence lifetime (in C1COCCO1): 2.9 ns
- fluorescence lifetime (in CC#N): 0.22 ns
- fluorescence lifetime (in CC(C)=O): 0.8 ns
- fluorescence lifetime (in CCCCCCC): 2.02 ns
- fluorescence lifetime (in CCOC(C)=O): 2.4 ns
- fluorescence lifetime (in CN(C)C=O): 0.18 ns
- fluorescence lifetime (in CS(C)=O): 0.32 ns
- fluorescence lifetime (in Cc1ccccc1): 2.6 ns
- fluorescence lifetime (in ClC(Cl)Cl): 1.35 ns
- fluorescence lifetime (in ClCCl): 1.35 ns

Compound: COc1ccc(C#Cc2ccc(-c3nn[nH]n3)cc2)cc1OC
- fluorescence lifetime (in C1CCOC1): 0.94 ns
- fluorescence lifetime (in C1COCCO1): 0.81 ns
- fluorescence lifetime (in CC#N): 0.46 ns
- fluorescence lifetime (in CCOC(C)=O): 0.86 ns
- fluorescence lifetime (in CS(C)=O): 0.66 ns
- fluorescence lifetime (in Cc1ccccc1): 0.73 ns

Compound: O=Cc1ccc(C2=C3C=c4c(oc5ccccc45)=[N+]3[B-](F)(F)n3c2cc2c4ccccc4oc23)cc1
- fluorescence lifetime (in C1CCCCC1): 2.47 ns
- fluorescence lifetime (in C1CCOC1): 2.09 ns
- fluorescence lifetime (in CC#N): 2.38 ns
- fluorescence lifetime (in CCOC(C)=O): 2.12 ns
- fluorescence lifetime (in CN(C)C=O): 2.3 ns
- fluorescence lifetime (in CO): 2.73 ns
- fluorescence lifetime (in Cc1ccccc1): 2.44 ns
- fluorescence lifetime (in ClCCl): 2.49 ns

Other lines, results leading:

- fluorescence lifetime (in ClC(Cl)Cl): 1.9 ns
Compound: COc1ccc(-c2oc3cccc4c5c(-c6ccc(OC)c(OC)c6)c(=N)oc6cccc(c2c34)c65)cc1OC

- fluorescence lifetime (in CC#N): 1.24 ns
Compound: Cn1c(-c2ccc(-c3nc(-c4ccccc4)c(-c4ccccc4)n3C)s2)nc(-c2ccccc2)c1-c1ccccc1

- fluorescence lifetime (in C1CCOC1): 4.26 ns
Compound: CCn1c2ccccc2c2cc(C#Cc3cc(C#Cc4ccc5c(c4)c4ccccc4n5CC)nc(C#N)n3)ccc21

- fluorescence lifetime (in C1CCCCC1): 2.19 ns
- fluorescence lifetime (in CCOC(C)=O): 0.54 ns
Compound: CC1=[N+]2C(=C(NCc3ccccc3)c3ccc(C)n3[B-]2(F)F)C=C1c1cc2n(c1)[B-](F)(F)[N+]1=CC=CC1=C2c1c(C)cc(C)cc1C

- fluorescence lifetime (in ClCCl): 0.99 ns
Compound: CCCCn1c(-c2ccc(-c3nnc(-c4ccc(-c5nc6ccccc6n5CCCC)cc4)o3)cc2)nc2ccccc21

- fluorescence lifetime (in ClCCl): 1.6 ns
Compound: COCCOCCOCCOCC(COCCOCCOCCOC)Oc1cc(/C=C/c2ccc(/C=C(\C#N)c3ccccc3)cc2)c(OC(COCCOCCOCCOC)COCCOCCOCCOC)cc1/C=C/c1ccc(/C=C(\C#N)c2ccccc2)cc1

- fluorescence lifetime (in ClC(Cl)Cl): 6.3 ns
Compound: CC(C)(C)c1ccc(Oc2cc3c4c(cc(Oc5ccc(C(C)(C)C)cc5)c5c6c(Oc7ccc(C(C)(C)C)cc7)cc7c8c(cc(Oc9ccc(C(C)(C)C)cc9)c(c2c45)c86)C(=O)N(Cc2ccccc2)C7=O)C(=O)N(Cc2ccccc2)C3=O)cc1
